Measurements: US11479546B2, “Antimalarial hexahydropyrimidine analogues” (UCB Biopharma SRL, priority 2018, dated 2022)

Tested on: Plasmodium falciparum 3D7
Assay: P. falciparum 3D7 asexual blood stage assay, Assay Procedure Version 2 (SYBR green readout)
Format: cell-based
Conditions: Version 2 of the assay procedure (asterisk *), 72 h incubation in infected erythrocytes, 50,000 nM to 15 nM
Method in brief: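 P. falciparum 3D7 in A+ erythrocytes (5% haematocrit, 0.5% parasitaemia) exposed 72 h at 37 °C (1% O2, 3% CO2) to 20-point 1.5-fold titrations, final 50,000–15 nM in 0.5% DMSO. SYBR green in lysis buffer overnight, fluorescence 485/528 nm; % inhibition vs mefloquine and DMSO controls, EC50 from biphasic two-site fit.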

[1] = Plasmodium falciparum, 3D7, Erythrocyte, 72 h

SMILES | IC50 [1] [nM] | IC50 [nM]
C[C@@]1(c2cccc(Nc3ccc(C#N)cc3)c2Cl)CC(=O)N([C@H]2C[C@@](C)(O)C2)C(=N)N1 [Example 123, 4-{2-Chloro-3-[(4S)-1-(3-hydroxy-3-methylcyclobutyl)-2-imino-4-methyl-6-oxo-hexahydropyrimidin-4-yl]-anilino}benzonitrile] | 552 | 
CC1(C)CC(N2C(=N)N[C@](C)(c3cccc(Nc4ccc(C5CC5)nc4)c3Cl)CC2=O)CCO1 (single isomer, unassigned) [Example 158, (6S)-6-{2-Chloro-3-[(6-cyclo-propylpyridin-3-yl)amino]-phenyl}-3-[(4S*)-2,2-dimethyl-tetrahydropyran-4-yl]-2-imino-6-methylhexahydropyrimidin-4-one] |  | 1730
C[C@@H]1C[C@H](N2C(=N)N[C@](C)(c3cccc(Nc4ccc(C5CC5)nn4)c3Cl)CC2=O)CCO1 (relative stereo) [Example 200, (6S)-6-{2-Chloro-3-[(6-cyclo-propylpyridazin-3-yl)amino]-phenyl}-2-imino-6-methyl-3-[(2R*,4R*)-2-methyltetrahydro-pyran-4-yl]hexahydropyrimidin-4-one] | 45 | 
C[C@@H]1C[C@H](N2C(=N)N[C@](C)(c3cccc(Nc4cc(F)c5ccnn5c4)c3Cl)CC2=O)CCO1 (stereo in doubt) [Example 137, (6S)-6-{2-Chloro-3-[(4-fluoro-pyrazolo[1,5-a]pyridin-6-yl)-amino]phenyl}-2-imino-6-methyl-3-[(cis)-2-methyl-tetrahydropyran-4-yl]-hexahydropyrimidin-4-one] | 158 | 
CC1(C#N)CC(N2C(=N)N[C@](C)(c3cccc(Nc4ccc(F)cc4)c3Cl)CC2=O)C1 [Example 180, 3-{(4S)-4-[2-Chloro-3-(4-fluoroanilino)phenyl]-2-imino-4-methyl-6-oxohexahydro-pyrimidin-1-yl}-1-methyl-cyclobutanecarbonitrile (trans isomer)] |  | 629
CC1(C#N)CC(N2C(=N)N[C@](C)(c3cccc(Nc4ccc(F)cc4)c3Cl)CC2=O)C1 [Example 181, 3-{(4S)-4-[2-Chloro-3-(4-fluoroanilino)phenyl]-2-imino-4-methyl-6-oxohexahydro-pyrimidin-1-yl}-1-methyl-cyclobutanecarbonitrile (cis isomer)] |  | 201
C[C@H]1C[C@@H](N2C(=N)N[C@](C)(c3cccc(Nc4ccc(C5CC5)nc4)c3Cl)CC2=O)CCO1 (relative stereo) [Example 199, (6S)-6-{2-Chloro-3-[(6-cyclo-propylpyridin-3-yl)amino]-phenyl}-2-imino-6-methyl-3-[(2S*,4S*)-2-methyltetrahydro-pyran-4-yl]hexahydropyrimidin-4-one] | 309 | 
CC[C@]1(O)C[C@@H](N2C(=N)N[C@](C)(c3cccc(Nc4ccc(F)cc4)c3Cl)CC2=O)C1 [Example 178, (6S)-6-[2-Chloro-3-(4-fluoro-anilino)phenyl]-3-(3-ethyl-3-hydroxycyclobutyl)-2-imino-6-methylhexahydropyrimidin-4-one (cis isomer)] | 428 | 

Continued, values first:

IC50 [1] [nM] | IC50 [nM] | SMILES
814 |  | C[C@@]1(c2cccc(Nc3ccccc3N=S(C)(C)=O)c2Cl)CC(=O)N(C2CCOCC2)C(=N)N1 [Example 109, (6S)-6-[2-Chloro-3-(2-{[dimethyl(oxo)-λ^6-sulfanylidene]amino}anilino)-phenyl]-2-imino-6-methyl-3-(tetrahydropyran-4-yl)-hexahydropyrimidin-4-one]
658 |  | CN1CCOc2cc(Nc3cccc([C@]4(C)CC(=O)N(C5CCOCC5)C(=N)N4)c3Cl)ccc21 [Example 86, (6S)-6-{2-Chloro-3-[(4-methyl-2,3-dihydro-1,4-benzoxazin-7-yl)amino]phenyl}-2-imino-6-methyl-3-(tetrahydropyran-4-yl)hexahydropyrimidin-4-one]
791 |  | Cn1cc2c(Nc3cccc([C@]4(C)CC(=O)N(C5CCOCC5)C(=N)N4)c3Cl)cccc2n1 [Example 77, (6S)-6-{2-Chloro-3-[(2-methyl-indazol-4-yl)amino]phenyl}-2-imino-6-methyl-3-(tetrahydro-pyran-4-yl)hexahydropyrimidin-4-one]
717 |  | C[C@@]1(c2cccc(Nc3ccc(OC(F)F)nc3)c2Cl)CC(=O)N([C@H]2C[C@@](C)(O)C2)C(=N)N1 [Example 128, (6S)-6-(2-Chloro-3-{[6-(difluoromethoxy)pyridin-3-yl]-amino}phenyl)-3-(3-hydroxy-3-methylcyclobutyl)-2-imino-6-methylhexahydropyrimidin-4-one]
456 |  | C[C@@]1(c2cccc(Nc3cnc(OC(F)F)c4ccccc34)c2Cl)CC(=O)N(C2CCOCC2)C(=N)N1 [Example 95, (6S)-6-(2-Chloro-3-{[1-(difluoromethoxy)isoquinolin-4-yl]amino}phenyl)-2-imino-6-methyl-3-(tetrahydropyran-4-yl)hexahydropyrimidin-4-one]
916 |  | C[C@@]1(c2cccc(Nc3cccc(OC(F)F)c3)c2Cl)CC(=O)N(C2CCOCC2)C(=N)N1 [Example 63, (6S)-6-{2-Chloro-3-[3-(difluoro-methoxy)anilino]phenyl}-2-imino-6-methyl-3-(tetrahydro-pyran-4-yl)hexahydropyrimidin-4-one]
237 |  | C[C@@]1(c2cccc(Nc3ccc(CC(F)(F)F)nc3)c2Cl)CC(=O)N(C2CCOCC2)C(=N)N1 [Example 119, (6S)-6-(2-Chloro-3-{[6-(2,2,2-trifluoroethyl)pyridin-3-yl]-amino}phenyl)-2-imino-6-methyl-3-(tetrahydropyran-4-yl)hexahydropyrimidin-4-one]
552 |  | Cc1ccc(Nc2cccc([C@]3(C)CC(=O)N([C@@H]4CCO[C@@H](C)C4)C(=N)N3)c2Cl)cn1 (single isomer, unassigned; peak 2) [Example 196, (6S)-6-{2-Chloro-3-[(6-methyl-pyridin-3-yl)amino]phenyl}-2-imino-6-methyl-3-[(2S*,4R*)-2-methyltetrahydropyran-4-yl]-hexahydropyrimidin-4-one (Peak 2)]
680 |  | C[C@@]1(c2cccc(Nc3cnc(C(F)(F)F)nc3)c2Cl)CC(=O)N(C2CCOCC2)C(=N)N1 [Example 52, (6S)-6-(2-Chloro-3-{[2-(trifluoromethyl)pyrimidin-5-yl]amino}phenyl)-2-imino-6-methyl-3-(tetrahydropyran-4-yl)hexahydropyrimidin-4-one]
478 |  | C[C@@]1(c2cccc(Nc3cc(F)c4ccnn4c3)c2Cl)CC(=O)N(C2CCOCC2)C(=N)N1 [Example 70, (6S)-6-{2-Chloro-3-[(4-fluoro-pyrazolo[1,5-a]pyridin-6-yl)-amino]phenyl}-2-imino-6-methyl-3-(tetrahydropyran-4-yl)hexahydropyrimidin-4-one]
896 |  | C[C@@]1(c2cccc(Nc3ccn4nccc4c3)c2Cl)CC(=O)N(C2CCOCC2)C(=N)N1 [Example 91, (6S)-6-[2-Chloro-3-(pyrazolo-[1,5-a]pyridin-5-ylamino)-phenyl]-2-imino-6-methyl-3-(tetrahydropyran-4-yl)-hexahydropyrimidin-4-one]
193 |  | C[C@@]1(c2cccc(Nc3ncccc3OC(F)F)c2Cl)CC(=O)N(C2CCOCC2)C(=N)N1 [Example 102, (6S)-6-(2-Chloro-3-{[3-(difluoromethoxy)pyridin-2-yl]-amino}phenyl)-2-imino-6-methyl-3-(tetrahydropyran-4-yl)hexahydropyrimidin-4-one]
